Source: the NIST ThermoML archive (doi:10.1016/j.jct.2013.05.040)

Tests used:
[1] = xn = mol fraction of the nth substance listed; settings: Liquid; for viscosity: Moving piston method; for mass density: Vibrating tube method
[2] = Liquid; for mass density: Vibrating tube method; for viscosity: 101.33 kPa, Moving piston method

CC [ethane] + CC(C)O
[1]
Settings	mass density, 302.9 K [kg/m3]	mass density, 323.1 K [kg/m3]	viscosity, 302.9 K [mPa·s]	viscosity, 323.1 K [mPa·s]
910 kPa, x1 = 0.057	–	741.3	–	0.882
1030 kPa, x1 = 0.09	751.2	–	1.251	–
1990 kPa, x1 = 0.141	–	716.3	–	0.663
2030 kPa, x1 = 0.199	718.5	–	0.919	–
2970 kPa, x1 = 0.227	–	688.2	–	0.471
3040 kPa, x1 = 0.347	669.3	–	0.526	–
3650 kPa, x1 = 0.47	623	–	0.246	–
3970 kPa, x1 = 0.334	–	650.6	–	0.338
4940 kPa, x1 = 0.478	–	593.7	–	0.217
5620 kPa, x1 = 0.644	–	515.7	–	0.131

C [methane] + CC(C)O
[1]
Settings	mass density, 302.8 K [kg/m3]	mass density, 323.1 K [kg/m3]	viscosity, 302.8 K [mPa·s]	viscosity, 323.1 K [mPa·s]
980 kPa, x1 = 0.018	–	754.5	–	0.908
1070 kPa, x1 = 0.019	771.2	–	1.523	–
2020 kPa, x1 = 0.033	–	750	–	0.847
2080 kPa, x1 = 0.037	767.2	–	1.403	–
3080 kPa, x1 = 0.049	–	745	–	0.8
3190 kPa, x1 = 0.055	761.2	–	1.339	–
4080 kPa, x1 = 0.065	–	740.7	–	0.74
4080 kPa, x1 = 0.069	756.5	–	1.262	–
4980 kPa, x1 = 0.078	–	736.9	–	0.717
5080 kPa, x1 = 0.085	753.3	–	1.208	–
6040 kPa, x1 = 0.093	–	732.3	–	0.676
6060 kPa, x1 = 0.1	748.9	–	1.129	–

CC(C)O [propan-2-ol]
mass density [kg/m3], [2]
Settings	302.9 K	323 K
1000 kPa	–	760.6
1040 kPa	778.1	–
2000 kPa	778.9	–
2020 kPa	–	761.6
2990 kPa	779.8	–
3000 kPa	–	762.7
4060 kPa	780.8	–
4070 kPa	–	763.7
5000 kPa	–	764.7
5010 kPa	781.6	–
6000 kPa	782.5	–
6010 kPa	–	765.7
7020 kPa	783.4	766.7
8010 kPa	–	767.7
8020 kPa	784.3	–
9000 kPa	785.1	–
9010 kPa	–	768.6
10000 kPa	786	–
10020 kPa	–	769.6

[2]
Settings	viscosity [mPa·s]
303.3 K	1.716
323.2 K	0.973

CC(C)O [propan-2-ol] + O=C=O
[1]
Settings	mass density, 302.8 K [kg/m3]	mass density, 323.1 K [kg/m3]	viscosity, 302.8 K [mPa·s]	viscosity, 323.1 K [mPa·s]
980 kPa, x2 = 0.047	–	762.7	–	0.895
990 kPa, x2 = 0.062	783.8	–	1.365	–
1960 kPa, x2 = 0.102	–	767.2	–	0.743
2000 kPa, x2 = 0.133	791	–	1.108	–
2950 kPa, x2 = 0.164	–	771.5	–	0.657
2980 kPa, x2 = 0.212	798.5	–	0.895	–
3930 kPa, x2 = 0.23	–	776.1	–	0.538
3970 kPa, x2 = 0.304	807.3	–	0.604	–
4930 kPa, x2 = 0.305	–	780.3	–	0.394
5940 kPa, x2 = 0.391	–	783.7	–	0.321
